Source: patent publication US20160319277A1, “METHODS OF IMPROVED PROTEIN PRODUCTION USING MIRNAs AND SIRNAs” (THE JOHNS HOPKINS UNIVERSITY, priority 2015, published 2016)
Read-outs that look alike come from different tables or passages of the source.

Tested on: HEK-CMV-Luc2-Hygro cells
Assay: High-throughput genome-wide siRNA screen and validation screen for luciferase expression
Assay type: cell-based, human
Experimental: The Silencer Select™ Human genome siRNA library (Ambion), which targets 21,585 human genes with 3 siRNAs per gene, was used for screening. Each siRNA is arrayed in an individual well (Corning 3570, 384 well, white, solid bottom plates). The transfection was done in duplicates: 0.8 pmol of each siRNA was spotted to a well of a 384-well plate (Corning) and 20 μL of serum-free DMEM containing 0.07 μL of Lipofectamine™ RNAiMax (Life Technologies) was then added to each well. This lipid-siRNA mixture was incubated at ambient temperature for 30 min prior to addition of 4000 cells in 20 μL of DMEM containing 20% FBS (Gibco). After incubating the transfected cells at 37° C. in 5% CO2 for 72 hours, 20 μL of ONE-Glo™ Reagent (Promega) was added to one set of replicates for ‘overall luciferase yield’ quantification and 20 μL of CellTiter-Glo™ Reagent (Promega) was added to the second set of replicates for ‘viable cell density’ measurement. All plates were incubated at room temperature for 20 minutes to stabilize the luminescent signal and the signal was then measured with PerkinElmer Envision 2104 Multilabel™ plate reader.
The 56 genes which got targeted by at least two independent siRNAs (out of three) resulting in enhanced luciferase production with MAD-based z-score>3 from the primary screen were subjected to validation screen using 3 additional Silencer™ siRNAs (Ambion) with different sequences from those used in the primary screen. […] The transfection and assay processes were-the same as the primary genome-wide screen. Data visualization was performed in R computational environment (available on the World Wide Web at R-project.org/) by using ‘hexbin’ and ‘ggplot2’ packages.
The screen generated end-point data for ‘overall luciferase yield’ and ‘viable cell density’ in each well. For each plate, the median value of the negative control wells was set as 100% and was used to normalize corresponding sample wells. The ‘overall luciferase yield’ and ‘viable cell density’ were exported as % of negative control and the median absolute deviation (MAD)-based z-score was calculated for each sample.

[1] = Table 4, primary screen, 72 h, negative control = 100%

| Substance | Viable cell density (%) [1] [%] | per cell luciferase yield (%) [1] [%] | Viable cell density (%) |
| --- | --- | --- | --- |
| 97 (GAUGAAGAAUGAUAAGUCATT; chemistry not given here; listed as Homo sapiens) [compound 97] | 96.599 | 184.201 |  |
| 98 (CAACGGGACUAUUAUGAUATT; chemistry not given here; listed as Homo sapiens) [compound 98] | 97.392 | 163.496 |  |
| 99 (CCCGGAUACUUCUGAAGAATT; chemistry not given here; listed as Homo sapiens) [compound 99] | 75.879 | 227.884 |  |
| 100 (GAACGAGUACAGCAAUAUATT; chemistry not given here; listed as Homo sapiens) [compound 100] | 108.214 | 140.868 |  |
| 101 (GUUCAUCCAUAAGUACAUUTT; chemistry not given here; listed as Homo sapiens) [compound 101] | 83.129 | 238.606 |  |
| 102 (AGAUCUUUGUCAAGGUGUATT; chemistry not given here; listed as Homo sapiens) [compound 102] | 96.256 | 153.438 |  |
| 103 (GACAUUGGAUCAUACUAAATT; chemistry not given here; listed as Homo sapiens) [compound 103] | 88.908 | 185.522 |  |
| 104 (GGCGAAUGCUCCUGACUAATT; chemistry not given here; listed as Homo sapiens) [compound 104] | 103.888 | 156.977 |  |
| 105 (GCGCAAGCUUAAGAACUUUTT; chemistry not given here; listed as Homo sapiens) [compound 105] | 94.579 | 170.349 |  |
| 106 (GCUCAUCGACAUCAAAGUUTT; chemistry not given here; listed as Homo sapiens) [compound 106] | 97.007 | 170.088 |  |
| 107 (CCAUAUAUCCGAAUGACCATT; chemistry not given here; listed as Homo sapiens) [compound 107] | 63.879 | 256.443 |  |
| 108 (CGGAAUCAAUGAUCCUGUATT; chemistry not given here; listed as Homo sapiens) [compound 108] | 71.395 | 212.652 |  |
| 109 (GCAUCGAGGAGACUAACAATT; chemistry not given here; listed as Homo sapiens) [compound 109] | 51.696 | 275.068 |  |
| 110 (CAAUGAUUCUUACCCUCAATT; chemistry not given here; listed as Homo sapiens) [compound 110] | 77.169 | 257.929 |  |
| 111 (CAACCUUAUUAUCAUUGAATT; chemistry not given here; listed as Homo sapiens) [compound 111] | 49.133 | 300.611 |  |
| 112 (GUUUCAUCUGGGUUCGCUATT; chemistry not given here; listed as Homo sapiens) [compound 112] | 62.659 | 233.649 |  |
| 113 (GCAUCAGCUCACAACAAAATT; chemistry not given here; listed as Homo sapiens) [compound 113] | 35.915 | 409.361 |  |
| 114 (GUCCUAUCACCGUAUCUUATT; chemistry not given here; listed as Homo sapiens) [compound 114] | 55.962 | 266.627 |  |
| 115 (AGAUACUGGUAUUGCUCGATT; chemistry not given here; listed as Homo sapiens) [compound 115] | 54.559 | 388.072 |  |
| 116 (UGGUCUCAAUGACAGUAGATT; chemistry not given here; listed as Homo sapiens) [compound 116] | 53.645 | 370.824 |  |

| Substance | Viable cell density (%) [1] [%] | per cell luciferase yield (%) [1] [%] | Viable cell density (%) |
| --- | --- | --- | --- |
| 117 (GGCUGUACAUAGUCCUUUUTT; chemistry not given here; listed as Homo sapiens) [compound 117] |  | 238.463 | 66.394 |
| 118 (UGUGGACUGAGGUACCCAATT; chemistry not given here; listed as Homo sapiens) [compound 118] | 58.901 | 247.842 |  |
| 119 (CUGCCGCAACAAUAAGAAATT; chemistry not given here; listed as Homo sapiens) [compound 119] | 82.950 | 171.198 |  |
| 120 (GGAUCAUGCUAAAAGGAGATT; chemistry not given here; listed as Homo sapiens) [compound 120] | 54.945 | 311.516 |  |
| 121 (CAUUGGUUUUGAUGAGUAUTT; chemistry not given here; listed as Homo sapiens) [compound 121] |  | 226.659 | 64.385 |
| 122 (AGGGCUAUCUGGUAUCUGUTT; chemistry not given here; listed as Homo sapiens) [compound 122] |  | 283.281 | 54.854 |
| 123 (GGUGUAAUAAUGUCCUUUATT; chemistry not given here; listed as Homo sapiens) [compound 123] | 79.386 | 188.094 |  |
| 124 (GAAUAACCGUUGGUUUAAUTT; chemistry not given here; listed as Homo sapiens) [compound 124] | 65.083 | 292.710 |  |
| 125 (GGAACACUAUGAUGAGUUUTT; chemistry not given here; listed as Homo sapiens) [compound 125] | 63.672 | 240.287 |  |
| 126 (GGUGCUCUCGGUUGCACAATT; chemistry not given here; listed as Homo sapiens) [compound 126] | 82.333 | 187.362 |  |
| 127 (CCAACUACCUGAACGAUGATT; chemistry not given here; listed as Homo sapiens) [compound 127] | 54.133 | 311.348 |  |
| 128 (CAGCAAACCUUUGACCAGATT; chemistry not given here; listed as Homo sapiens) [compound 128] | 55.405 | 277.511 |  |
| 129 (GCUAUUUCCAGCGAAUAUATT; chemistry not given here; listed as Homo sapiens) [compound 129] | 81.492 | 244.722 |  |
| 130 (GGAGGAAUCUCGAAUGCGATT; chemistry not given here; listed as Homo sapiens) [compound 130] | 96.002 | 173.284 |  |
| 131 (GGAGAAAGAAUCAACGGAATT; chemistry not given here; listed as Homo sapiens) [compound 131] | 70.586 | 284.565 |  |
| 132 (GGACGGAAGCGAAAAUCGATT; chemistry not given here; listed as Homo sapiens) [compound 132] | 71.473 | 216.209 |  |
| 133 (GAACUUCAAUGGAAAACAUTT; chemistry not given here; listed as Homo sapiens) [compound 133] | 63.577 | 250.367 |  |
| 134 (GAUCGUUUGAGAGAACAAATT; chemistry not given here; listed as Homo sapiens) [compound 134] | 77.107 | 210.336 |  |
| 135 (CAGGUAGUGUAAGCCCUCATT; chemistry not given here; listed as Homo sapiens) [compound 135] | 66.872 | 302.994 |  |
| 136 (AGGUUACAGAGGACUCAGATT; chemistry not given here; listed as Homo sapiens) [compound 136] | 49.189 | 299.886 |  |
